Patent US10750743B2, “Pyridazinone herbicides” (E.I. DU PONT DE NEMOURS AND COMPANY, priority 2015, dated 2020)

How the values were obtained:
Assay type in all cases: in vivo
[1] = test system: pigweed (Amaranthus retroflexus); assay: Test A postemergence application, visual injury rating; conditions: 0 to 100 scale, 0 no effect, 100 complete control
Excerpt: (§1) Seeds of plant species selected from barnyardgrass (Echinochloa crus-galli), kochia (Kochia scoparia), ragweed (common ragweed, Ambrosia elatior), ryegrass, It. (Italian ryegrass, Lolium multiflorum), foxtail, giant (giant foxtail, Setaria faberii), and pigweed (Amaranthus retroflexus), were planted into a blend of loam soil and sand and treated preemergence with a directed soil spray using test chemicals formulated in a non-phytotoxic solvent mixture which included a surfactant.
(§2) At the same time, plants selected from these weed species and also wheat (Triticum aestivum), corn (Zea mays), blackgrass (Alopecurus myosuroides), and galium (catchweed bedstraw, Galium aparine), were planted in pots containing the same blend of loam soil and sand and treated with postemergence applications of test chemicals formulated in the same manner Plants ranged in height from 2 to 10 cm and were in the one- to two-leaf stage for the postemergence treatment. Treated plants and untreated controls were maintained in a greenhouse for approximately 10 d, after which time all treated plants were compared to untreated controls and visually evaluated for injury. Plant response ratings, summarized in Table A, are based on a 0 to 100 scale where 0 is no effect and 100 is complete control. A dash (-) response means no test result.

[2] = test system: foxtail, giant (giant foxtail, Setaria faberii); assay: as above; conditions: 0 to 100 scale, 0 no effect, 100 complete control
Excerpt: as §1, §2

[3] = test system: blackgrass (Alopecurus myosuroides); assay: as above; conditions: 0 to 100 scale, 0 no effect, 100 complete control
Excerpt: as §1, §2

[4] = test system: barnyardgrass (Echinochloa crus-galli); assay: as above; conditions: 0 to 100 scale, 0 no effect, 100 complete control
Excerpt: as §1, §2

corn (Zea mays) = assay: as above; conditions: 0 to 100 scale, 0 no effect, 100 complete control
Excerpt: as §1, §2

[5] = test system: galium (catchweed bedstraw, Galium aparine); assay: as above; conditions: 0 to 100 scale, 0 no effect, 100 complete control
Excerpt: as §1, §2

kochia (Kochia scoparia) [6] = assay: as above; conditions: 0 to 100 scale, 0 no effect, 100 complete control
Excerpt: as §1, §2

[7] = test system: ryegrass, It. (Italian ryegrass, Lolium multiflorum); assay: as above; conditions: 0 to 100 scale, 0 no effect, 100 complete control
Excerpt: as §1, §2

[8] = test system: wheat (Triticum aestivum); assay: as above; conditions: 0 to 100 scale, 0 no effect, 100 complete control
Excerpt: as §1, §2

[9] = test system: ragweed (common ragweed, Ambrosia elatior); assay: as above; conditions: 0 to 100 scale, 0 no effect, 100 complete control
Excerpt: as §1, §2

[10] = test system: pigweed (Amaranthus retroflexus); assay: Test A preemergence, directed soil spray, visual injury rating; conditions: 0 is no effect, 100 is complete control
Excerpt: as §1, §2

[11] = test system: foxtail, giant (giant foxtail, Setaria faberii); assay: as above; conditions: 0 is no effect, 100 is complete control
Excerpt: as §1, §2

[12] = test system: barnyardgrass (Echinochloa crus-galli); assay: as above; conditions: 0 is no effect, 100 is complete control
Excerpt: as §1, §2

kochia (Kochia scoparia) [13] = assay: as above; conditions: 0 is no effect, 100 is complete control
Excerpt: as §1, §2

[14] = test system: ryegrass, It. (Italian ryegrass, Lolium multiflorum); assay: as above; conditions: 0 is no effect, 100 is complete control
Excerpt: as §1, §2

[15] = test system: ragweed (common ragweed, Ambrosia elatior); assay: as above; conditions: 0 is no effect, 100 is complete control
Excerpt: as §1, §2

[16] = test system: ducksalad (Heteranthera limosa); assay: Test B flooded paddy test, visual rating; conditions: Flood, 250 g ai/ha, applied to paddy water, rated after 13 to 15 d
Procedure: (§3) Plant species in the flooded paddy test selected from rice (Oryza sativa), sedge, umbrella (small-flower umbrella sedge, Cyperus difformis), ducksalad (Heteranthera limosa), and barnyardgrass (Echinochloa crus-galli) were grown to the 2-leaf stage for testing. At time of treatment, test pots were flooded to 3 cm above the soil surface, treated by application of test compounds directly to the paddy water, and then maintained at that water depth for the duration of the test. Treated plants and controls were maintained in a greenhouse for 13 to 15 d, after which time all species were compared to controls and visually evaluated. Plant response ratings, summarized in Table B, are based on a scale of 0 to 100 where 0 is no effect and 100 is complete control. A dash (-) response means no test result.

[17] = test system: barnyardgrass (Echinochloa crus-galli); assay: Test B flooded paddy test, visual rating; conditions: Flood, 250 g ai/ha, applied to paddy water, rated after 13 to 15 d
Procedure: as §3

rice (Oryza sativa) = assay: Test B flooded paddy test, visual rating; conditions: Flood, 250 g ai/ha, applied to paddy water, rated after 13 to 15 d
Procedure: as §3

| SMILES | Pigweed plant response rating ([1]; 125 g ai/ha) | Pigweed plant response rating ([1]; 500 g ai/ha) | Foxtail, Giant plant response rating ([2]; 125 g ai/ha) | Foxtail, Giant plant response rating ([2]; 500 g ai/ha) | Blackgrass plant response rating ([3]; 125 g ai/ha) | Blackgrass plant response rating ([3]; 500 g ai/ha) | Barnyardgrass plant response rating ([4]; 125 g ai/ha) | Barnyardgrass plant response rating ([4]; 500 g ai/ha) | Corn plant response rating (corn (Zea mays); 125 g ai/ha) | Corn plant response rating (corn (Zea mays); 500 g ai/ha) | Galium plant response rating ([5]; 125 g ai/ha) | Kochia plant response rating (kochia (Kochia scoparia) [6]; 125 g ai/ha) | Ryegrass, It. plant response rating ([7]; 125 g ai/ha) | Wheat plant response rating ([8]; 125 g ai/ha) | Ragweed plant response rating ([9]; 125 g ai/ha) | Plant response rating (0 to 100 scale), Pigweed ([10]; 125 g ai/ha) | Plant response rating (0 to 100 scale), Foxtail, Giant ([11]; 125 g ai/ha) | Plant response rating (0 to 100 scale), Barnyardgrass ([12]; 125 g ai/ha) | Plant response rating (0 to 100 scale), Kochia (kochia (Kochia scoparia) [13]; 125 g ai/ha) | Plant response rating (0 to 100 scale), Ryegrass, It. ([14]; 125 g ai/ha) | other results |
| --- | --- | --- | --- | --- | --- | --- | --- | --- | --- | --- | --- | --- | --- | --- | --- | --- | --- | --- | --- | --- | --- |
| Cc1cnc2sc(C)c(-c3c(OC(=O)OC(C)C)c(C)nn(C)c3=O)c2c1 [Compound 6] | 20 | 80 | 20 | 40 | 0 | 20 | 0 | 10 | 0 | 0 | 50 | 30 | 20 | 0 | 10 | 0 | 20 | 0 | 0 | 0 | Galium plant response rating ([5]; 500 g ai/ha): 70; Kochia plant response rating (kochia (Kochia scoparia) [6]; 500 g ai/ha): 60; Ryegrass, It. plant response rating ([7]; 500 g ai/ha): 60; Wheat plant response rating ([8]; 500 g ai/ha): 0; Ragweed plant response rating ([9]; 500 g ai/ha): 30; Plant response rating (0 to 100 scale), Pigweed ([10]; 500 g ai/ha): 70; Plant response rating (0 to 100 scale), Foxtail, Giant ([11]; 500 g ai/ha): 0; Plant response rating (0 to 100 scale), Barnyardgrass ([12]; 500 g ai/ha): 0; Plant response rating (0 to 100 scale), Kochia (kochia (Kochia scoparia) [13]; 500 g ai/ha): 50; Plant response rating (0 to 100 scale), Ryegrass, It. ([14]; 500 g ai/ha): 50; Plant response rating (0 to 100 scale), Ragweed ([15]; 125 g ai/ha): 0 |
| Cc1cnc2sc(C)c(-c3c(OC(=O)C4CC4)c(C)nn(C)c3=O)c2c1 [Compound 9] | 50 | 80 | 0 | 40 | 0 | 20 | 0 | 20 | 0 | 0 | 50 | 40 | 30 | 0 | 10 | 0 | 0 | 0 | 0 | 30 | Galium plant response rating ([5]; 500 g ai/ha): 60; Kochia plant response rating (kochia (Kochia scoparia) [6]; 500 g ai/ha): 50; Ryegrass, It. plant response rating ([7]; 500 g ai/ha): 60; Wheat plant response rating ([8]; 500 g ai/ha): 0; Ragweed plant response rating ([9]; 500 g ai/ha): 30; Plant response rating (0 to 100 scale), Pigweed ([10]; 500 g ai/ha): 30; Plant response rating (0 to 100 scale), Foxtail, Giant ([11]; 500 g ai/ha): 40; Plant response rating (0 to 100 scale), Barnyardgrass ([12]; 500 g ai/ha): 0; Plant response rating (0 to 100 scale), Kochia (kochia (Kochia scoparia) [13]; 500 g ai/ha): 30; Plant response rating (0 to 100 scale), Ryegrass, It. ([14]; 500 g ai/ha): 70; Plant response rating (0 to 100 scale), Ragweed ([15]; 500 g ai/ha): 30 |
| Cc1nn(C)c(=O)c(-c2c(C)sc3ncccc23)c1O [Compound 14] | 0 | 0 | 0 | 0 | 0 | 0 | 0 | 0 | 0 | 0 | 0 | 0 | 0 | 0 | 0 | 0 | 0 | 0 | 0 | 10 | Galium plant response rating ([5]; 500 g ai/ha): 40; Kochia plant response rating (kochia (Kochia scoparia) [6]; 500 g ai/ha): 0; Ryegrass, It. plant response rating ([7]; 500 g ai/ha): 20; Wheat plant response rating ([8]; 500 g ai/ha): 0; Ragweed plant response rating ([9]; 500 g ai/ha): 0; Plant response rating (0 to 100 scale), Pigweed ([10]; 500 g ai/ha): 0; Plant response rating (0 to 100 scale), Foxtail, Giant ([11]; 500 g ai/ha): 0; Plant response rating (0 to 100 scale), Barnyardgrass ([12]; 500 g ai/ha): 0; Plant response rating (0 to 100 scale), Kochia (kochia (Kochia scoparia) [13]; 500 g ai/ha): 0; Plant response rating (0 to 100 scale), Ryegrass, It. ([14]; 500 g ai/ha): 20; Plant response rating (0 to 100 scale), Ragweed ([15]; 125 g ai/ha): 0; Plant response rating (0 to 100 scale), Ragweed ([15]; 500 g ai/ha): 0 |
| CCC(=O)Oc1c(C)nn(C)c(=O)c1-c1ccc(Cl)c2sccc12 [Compound 58] | 20 | – | 0 | – | 0 | – | 0 | – | 0 | – | 90 | 60 | 10 | 0 | 0 | 0 | 0 | 0 | 70 | 50 | Pigweed plant response rating ([1]; 31 g ai/ha): 0; Foxtail, Giant plant response rating ([2]; 31 g ai/ha): 0; Blackgrass plant response rating ([3]; 31 g ai/ha): 0; Barnyardgrass plant response rating ([4]; 31 g ai/ha): 0; Corn plant response rating (corn (Zea mays); 31 g ai/ha): 0; Galium plant response rating ([5]; 31 g ai/ha): 20; Kochia plant response rating (kochia (Kochia scoparia) [6]; 31 g ai/ha): 0; Ryegrass, It. plant response rating ([7]; 31 g ai/ha): 0; Wheat plant response rating ([8]; 31 g ai/ha): 0; Ragweed plant response rating ([9]; 31 g ai/ha): 0; Plant response rating (0 to 100 scale), Pigweed ([10]; 31 g ai/ha): 20; Plant response rating (0 to 100 scale), Foxtail, Giant ([11]; 31 g ai/ha): 20; Plant response rating (0 to 100 scale), Barnyardgrass ([12]; 31 g ai/ha): 0; Plant response rating (0 to 100 scale), Kochia (kochia (Kochia scoparia) [13]; 31 g ai/ha): 0; Plant response rating (0 to 100 scale), Ryegrass, It. ([14]; 31 g ai/ha): 0; Plant response rating (0 to 100 scale), Ragweed ([15]; 31 g ai/ha): 0; Plant response rating (0 to 100 scale), Ragweed ([15]; 125 g ai/ha): 80; Ducksalad plant response rating (0 to 100 scale, 0 is no effect, 100 is complete control) [16]: 0; Barnyardgrass plant response rating (0 to 100 scale, 0 is no effect, 100 is complete control) [17]: 0; Rice plant response rating (0 to 100 scale, 0 is no effect, 100 is complete control) (rice (Oryza sativa)): 0 |
